Experimental data: patent US6610687B1, “Benzofuranylsulfonates” (Bayer Aktiengesellschaft, priority 1999, dated 2003)

What was measured:
human PMN (neutrophils) = experiment: Inhibition of FMLP-stimulated production of superoxide radical anions; format: cell-based; settings: Neutrophil, read-out: IC50 O2^−
Protocol: 1. Preparation of Human PMN
Blood was taken from healthy subjects by venous puncture and neutrophils were purified by dextran sedimentation and resuspended in the buffered medium.
2. Inhibition of FMLP-stimulated Production of Superoxide Racidal Anions.
Neutrophils (2.5×10^5 ml^−1) were mixed with cytochrome C (1.2 mg/ml) in the wells of a microtitre plate. Compounds according to the invention were added in dimethyl sulphoxide (DMSO). Compound concentration ranged from 2.5 nM to 10 μM, the DMSO concentration was 0.1% v/v in all wells. After addition of cytochalasin b (5 μg×ml^−1) the plate was incubated for 5 min at 37° C. Neutrophils were then stimulated by addition of 4×10^−8 M FMLP and superoxide generation measured as superoxide dismutase inhibitable reduction of cytochrome C by monitoring the OD550 in a microtitre plate spectrophotometer, e.g. a thermomax microtitre plate spectrophotometer. Initial rates were calculated using a kinetic calculation programme such as a softmax programme. Blank wells contained 200 units of superoxide dismutase.
The inhibition of superoxide production was calculated as follows: [formula]
Rx=Rate of the well containing the compound according to the invention.
Ro=Rate in the control well.
Rb=Rate in the superoxide dismutase containing blank well.

[1] = molecular target: PMN phosphodiesterase (PDE IV); experiment: Assay of PMN phosphodiesterase; format: biochemical; settings: particulate fraction from human PMN, treated with sodium vanadate/glutathione
Protocol: 4. Assay of PMN Phosphodiesterase
This was performed as a particulate fraction from human PMN essentially as described by Souness and Scott (Biochem. J. 291, 389-395, 1993). Particulate fractions were treated with sodium vanadate/glutathione as described by the authors to express the descrete stereospecific site on the phosphodiesterase enzyme.

CC(=O)Nc1ccc(S(=O)(=O)Oc2ccc3c(NC(N)=O)c(C(=O)c4ccc(Cl)cc4)oc3c2)cc1 [Example 13]
IC50 (human PMN (neutrophils)): 65 nM
IC50 [1]: 21 nM

NC(=O)Nc1c(C(=O)c2ccc(Cl)cc2Cl)oc2cc(OS(=O)(=O)c3ccc(-c4ccccn4)s3)ccc12 [Example 21]
IC50 (human PMN (neutrophils)): 20 nM
IC50 [1]: 40 nM

Cc1nn(C)c(Cl)c1S(=O)(=O)Oc1ccc2c(NC(N)=O)c(C(=O)c3ccc(F)cc3F)oc2c1 [Example 24]
IC50 (human PMN (neutrophils)): 60 nM
IC50 [1]: 130 nM

Cc1ccc(C(=O)c2oc3cc(OS(=O)(=O)c4cn(C)cn4)ccc3c2NC(N)=O)c(C)c1 [Example 36]
IC50 (human PMN (neutrophils)): 7 nM
IC50 [1]: 1 nM

CN(C)S(=O)(=O)Oc1ccc2c(NC(N)=O)c(C(=O)c3cc(Cl)ccc3Cl)oc2c1 [Example 46]
IC50 (human PMN (neutrophils)): 35 nM
IC50 [1]: 6 nM

NC(=O)Nc1c(C(=O)c2ccc(Cl)cc2Cl)oc2cc(OS(=O)(=O)Cc3ccc(Cl)nc3)ccc12 [Example 47]
IC50 (human PMN (neutrophils)): 20 nM
IC50 [1]: 33 nM

NC(=O)Nc1c(C(=O)c2ccc(Cl)cc2Cl)oc2cc(OS(=O)(=O)c3cccc4cccnc34)ccc12 [Example 49]
IC50 (human PMN (neutrophils)): 1 nM
IC50 [1]: 1 nM
